# Marks after values point to notes of the source that are not given here.
# How the values were obtained:
# Assay type in all cases: physicochemical
# [1] = Competitive slurry of 2-Napsylate Form I and Form VI at different water activities
# Method: To determine the impact of water activity on 2-Napsylate Form VI and 2-Napsylate Form I, a series of competitive slurry experiments were carried out at different water activities in THF/water and ACN/water solvent systems at RT and 55° C. Suspensions of 2-Napsylate Form I at each condition were made and allowed to equilibrate for 2 h followed by addition of ˜5 mg of Form VI with stirring.
# [2] = Stability study of selected solid forms, HPLC purity after 7 days of storage
# [3] = Stability of freebase Compound (I) in amorphous form, HPLC purity on storage
# Method: (§1) HPLC analysis was performed with an Agilent HPLC 1260 series instrument.
# The stability of the freebase amorphous form of Compound (I), for example, as prepared in Example 1, was assessed by High Performance Liquid Chromatography (HPLC). […] Freebase Compound (I) in amorphous form was added to 5 separate vials. Each vial was sealed and stored for a period of 5 days at 20° C., 40° C., 60° C., 80° C., and 100° C., respectively. Purity was assessed by HPLC initially, and after 1, 3, and 5 days of storage.
# [4] = Stability study of selected solid forms, XRPD after 7 days of storage
# Text: XRPD diffractograms were collected with a Bruker, D2 Phaser or Panalytical Empyrean X-ray diffractometer. Diffractograms can be read by one of skill in the art, for example, to determine if a chemical sample is the substantially the same, different, or represents a mixture of forms. When a diffractogram is “substantially in accordance” as another diffractogram, a person of skill in the art would regard the samples resulting in the two diffractograms as the same form or same mixture of forms, taking into account minor variations for instrumentation, conditions, and the like.
# A stability study comparing amorphous freebase Compound I, Freebase Form II, 2-Napsylate Form I, Fumarate Form I, Succinate Form I, and Camsylate Form I was conducted. HPLC measurements were taken after 7 days of storage at the indicated conditions.
# [5] = Stability of amorphous salt forms of Compound (I), HPLC purity loss on storage; conditions: for HPLC Purity Loss on Day 14 (%): 14 days at 40° C., 75% RH; for HPLC Purity Loss (%): stored at RT for 10 days under ambient humidity (~75% RH), purity on day 3 minus purity on day 10
# Method: as §1
# The stability of various amorphous salt forms of Compound (I) was also assessed. The salt forms, in general, were prepared by suspending Compound (I) in a suitable solvent at ambient temperature and adding the corresponding acid to the mixture. The mixtures were allowed to stir until a solution was formed, filtered to remove any trace solids, and the resulting filtrate lyophilized to access the salts as solids. Characterization by XRPD established that all salt forms were amorphous. […]
# [6] = Form conversion of 2-Napsylate crystalline forms on vacuum drying or in slurry (XRPD); conditions: drying at 40° C. under vacuum (overnight)
# [7] = 7 days, 2° C., listed as Amorphous Freebase
# [8] = 7 days, 25° C., listed as Amorphous Freebase
# [9] = 7 days, 40° C. / 75% RH, listed as Amorphous Freebase
# [10] = T0, listed as Amorphous Freebase
smiles,measurement,setting,value
Cc1cccnc1-c1ccc(-c2n[nH]c3ncc(-c4ccc5c(c4)CC[C@@H](N4C6COCC4C6)CC5)cc23)nc1,2-Napsyalte Crystal Form,"[1]; 55° C., H2O, 1 w",Gel Formation
same,2-Napsyalte Crystal Form,"[1]; 55° C., H2O, 2 d",Gel Formation
same,2-Napsyalte Crystal Form,"[1]; 55° C., THF, 1 w",Form I (majorly)
same,2-Napsyalte Crystal Form,"[1]; 55° C., THF, 2 d",Form VI (majorly)
same,2-Napsyalte Crystal Form,"[1]; 55° C., THF/H2O (aw = 0.2), 1 w",Form I
same,2-Napsyalte Crystal Form,"[1]; 55° C., THF/H2O (aw = 0.2), 2 d",Form I (majorly)
same,2-Napsyalte Crystal Form,"[1]; 55° C., THF/H2O (aw = 0.4), 1 w",Gel Formation
same,2-Napsyalte Crystal Form,"[1]; 55° C., THF/H2O (aw = 0.4), 2 d",Gel Formation
same,2-Napsyalte Crystal Form,"[1]; 55° C., THF/H2O (aw = 0.6), 1 w",Gel Formation
same,2-Napsyalte Crystal Form,"[1]; 55° C., THF/H2O (aw = 0.6), 2 d",Gel Formation
same,2-Napsyalte Crystal Form,"[1]; 55° C., THF/H2O (aw = 0.8), 1 w",Gel Formation
same,2-Napsyalte Crystal Form,"[1]; 55° C., THF/H2O (aw = 0.8), 2 d",Gel Formation
same,2-Napsylate Crystal Form,"[1]; RT, ACN, 1 d",Form I
same,2-Napsylate Crystal Form,"[1]; RT, ACN/H2O (aw = 0.2), 1 d",Form I
same,2-Napsylate Crystal Form,"[1]; RT, ACN/H2O (aw = 0.4), 1 d",Form I
same,2-Napsylate Crystal Form,"[1]; RT, ACN/H2O (aw = 0.6), 1 d",Form I
same,2-Napsylate Crystal Form,"[1]; RT, ACN/H2O (aw = 0.8), 1 d",Gel Formation
same,2-Napsyalte Crystal Form,"[1]; RT, H2O, 1 w",Form IX
same,2-Napsylate Crystal Form,"[1]; RT, H2O, 1 d (ACN series)",Form I
same,2-Napsyalte Crystal Form,"[1]; RT, H2O, 2 d",Form I
same,2-Napsyalte Crystal Form,"[1]; RT, THF, 1 w",Form I (majorly)
same,2-Napsyalte Crystal Form,"[1]; RT, THF, 2 d",Form VI (majorly)
same,2-Napsyalte Crystal Form,"[1]; RT, THF/H2O (aw = 0.2), 1 w",Form I (majorly)
same,2-Napsyalte Crystal Form,"[1]; RT, THF/H2O (aw = 0.2), 2 d",Form I (majorly)
same,2-Napsyalte Crystal Form,"[1]; RT, THF/H2O (aw = 0.4), 1 w",Gel Formation
same,2-Napsyalte Crystal Form,"[1]; RT, THF/H2O (aw = 0.4), 2 d",Gel Formation
same,2-Napsyalte Crystal Form,"[1]; RT, THF/H2O (aw = 0.6), 1 w",Gel Formation
same,2-Napsyalte Crystal Form,"[1]; RT, THF/H2O (aw = 0.6), 2 d",Gel Formation
same,2-Napsyalte Crystal Form,"[1]; RT, THF/H2O (aw = 0.8), 1 w",Gel Formation
same,2-Napsyalte Crystal Form,"[1]; RT, THF/H2O (aw = 0.8), 2 d",Gel Formation
Cc1cccnc1-c1ccc(-c2n[nH]c3ncc(-c4ccc5c(c4)CC[C@@H](N4C6COCC4C6)CC5)cc23)nc1 [Amorphous Compound (I) (freebase)],HPLC Purity (A %),[2]; [7],97.68 A %
same,HPLC Purity (A %),[2]; [8],97.58 A %
same,HPLC Purity (A %),[2]; [9],96.88 A %
same,HPLC Purity (A %),[2]; [10],97.42 A %
same,HPLC purity,"[3]; 40° C., Day 0",96.45 % purity
same,HPLC purity,"[3]; 40° C., Day 1",96.12% purity
same,HPLC purity,"[3]; 40° C., Day 3",95.87% purity
same,HPLC purity,"[3]; 40° C., Day 5",95.00% purity
same,HPLC purity,"[3]; 60° C., Day 0",96.45 % purity
same,HPLC purity,"[3]; 60° C., Day 1",95.92% purity
same,HPLC purity,"[3]; 60° C., Day 3",93.06% purity
same,HPLC purity,"[3]; 60° C., Day 5",92.39% purity
same,HPLC purity,"[3]; 80° C., Day 0",96.45 % purity
same,HPLC purity,"[3]; 80° C., Day 1",95.01% purity
same,HPLC purity,"[3]; 80° C., Day 3",91.87% purity
same,HPLC purity,"[3]; 80° C., Day 5",89.86% purity
same,HPLC purity,"[3]; 100° C., Day 0",96.45 % purity
same,HPLC purity,"[3]; 100° C., Day 1",90.13% purity
same,HPLC purity,"[3]; 100° C., Day 3",74.66% purity
same,HPLC purity,"[3]; 100° C., Day 5",68.00% purity
same,HPLC purity,"[3]; r.t., Day 0",96.45 % purity
same,HPLC purity,"[3]; r.t., Day 1",96.23% purity
same,HPLC purity,"[3]; r.t., Day 3",96.01% purity
same,HPLC purity,"[3]; r.t., Day 5",96.03% purity
same,Decomposition on storage (HPLC),"[3]; sealed vials, 5 days at 20° C., 40° C., 60° C., 80° C., 100° C.",underwent decomposition
same,XRPD (solid form),[4]; [7],Amorphous
same,XRPD (solid form),[4]; [8],Amorphous
same,XRPD (solid form),[4]; [9],Amorphous
same,XRPD (solid form),[4]; [10],Amorphous
Cc1cccnc1-c1ccc(-c2n[nH]c3ncc(-c4ccc5c(c4)CC[C@@H](N4C6COCC4C6)CC5)cc23)nc1 [Benzene Sulfonic],HPLC Purity Loss on Day 14 (%),[5],3.4%
Cc1cccnc1-c1ccc(-c2n[nH]c3ncc(-c4ccc5c(c4)CC[C@@H](N4C6COCC4C6)CC5)cc23)nc1 [Benzoate],HPLC Purity Loss (%),[5],3.0* %
Cc1cccnc1-c1ccc(-c2n[nH]c3ncc(-c4ccc5c(c4)CC[C@@H](N4C6COCC4C6)CC5)cc23)nc1 [Camsylate Form I],HPLC Purity (A %),"[2]; 7 days, 2° C.",99.69 A %
same,HPLC Purity (A %),"[2]; 7 days, 25° C.",99.68 A %
same,HPLC Purity (A %),"[2]; 7 days, 40° C. / 75% RH",99.29 A %
same,HPLC Purity (A %),[2]; T0,99.69 A %
same,XRPD (solid form),"[4]; 7 days, 2° C.",Form I
same,XRPD (solid form),"[4]; 7 days, 25° C.",Form I
same,XRPD (solid form),"[4]; 7 days, 40° C. / 75% RH",Decreased
same,XRPD (solid form),[4]; T0,Form I
Cc1cccnc1-c1ccc(-c2n[nH]c3ncc(-c4ccc5c(c4)CC[C@@H](N4C6COCC4C6)CC5)cc23)nc1 [Chloride],HPLC Purity Loss on Day 14 (%),[5],1.5%
same,HPLC Purity Loss (%),[5],6.6* %
Cc1cccnc1-c1ccc(-c2n[nH]c3ncc(-c4ccc5c(c4)CC[C@@H](N4C6COCC4C6)CC5)cc23)nc1 [Citrate],HPLC Purity Loss on Day 14 (%),[5],14.2%
Cc1cccnc1-c1ccc(-c2n[nH]c3ncc(-c4ccc5c(c4)CC[C@@H](N4C6COCC4C6)CC5)cc23)nc1 [Form V],Crystal form after drying,[6],Form VII after
Cc1cccnc1-c1ccc(-c2n[nH]c3ncc(-c4ccc5c(c4)CC[C@@H](N4C6COCC4C6)CC5)cc23)nc1 [Form X],Crystal form after drying,[6],amorphous after
Cc1cccnc1-c1ccc(-c2n[nH]c3ncc(-c4ccc5c(c4)CC[C@@H](N4C6COCC4C6)CC5)cc23)nc1 [Freebase Form II],HPLC Purity (A %),"[2]; 7 days, 25° C.",99.44 A %
same,HPLC Purity (A %),"[2]; 7 days, 40° C. / 75% RH",99.36 A %
same,HPLC Purity (A %),"[2]; 7 days, 60° C.",99.22 A %
same,Chemical and physical stability compared to the other forms tested,[2]; Example 6 stability study,better chemical and physical stability
same,HPLC Purity (A %),[2]; T0,100.0 A %
same,XRPD (solid form),"[4]; 7 days, 25° C.",Form II
same,XRPD (solid form),"[4]; 7 days, 40° C. / 75% RH",Form II
same,XRPD (solid form),"[4]; 7 days, 60° C.",Form I
same,XRPD (solid form),[4]; T0,Form II
Cc1cccnc1-c1ccc(-c2n[nH]c3ncc(-c4ccc5c(c4)CC[C@@H](N4C6COCC4C6)CC5)cc23)nc1 [Fumarate Form I],HPLC Purity (A %),"[2]; 7 days, 2° C.",98.01 A %
same,HPLC Purity (A %),"[2]; 7 days, 25° C.",97.94 A %
same,HPLC Purity (A %),"[2]; 7 days, 40° C. / 75% RH",95.29 A %
same,HPLC Purity (A %),[2]; T0,97.84 A %
same,XRPD (solid form),"[4]; 7 days, 2° C.",Form I
same,XRPD (solid form),"[4]; 7 days, 25° C.",Form I
same,XRPD (solid form),"[4]; 7 days, 40° C. / 75% RH",Form I
same,XRPD (solid form),[4]; T0,Form I
Cc1cccnc1-c1ccc(-c2n[nH]c3ncc(-c4ccc5c(c4)CC[C@@H](N4C6COCC4C6)CC5)cc23)nc1 [Succinate Form I],HPLC Purity (A %),"[2]; 7 days, 2° C.",97.74 A %
same,HPLC Purity (A %),"[2]; 7 days, 25° C.",98.22 A %
same,HPLC Purity (A %),"[2]; 7 days, 40° C. / 75% RH",89.76 A %
same,HPLC Purity (A %),[2]; T0,98.09 A %
same,XRPD (solid form),"[4]; 7 days, 2° C.",Form I
same,XRPD (solid form),"[4]; 7 days, 25° C.",Form I
same,XRPD (solid form),"[4]; 7 days, 40° C. / 75% RH",Form I
same,XRPD (solid form),[4]; T0,Form I

# From patent US20250230173A1, “SALT FORMS OF AN AXL INHIBITOR” (Arcus Biosciences, Inc., priority 2023, published 2025)
